The values below are quoted from earlier work in US6790965B1, “Combinatorial dihydrobenzopyran library” (Pharmacopeia Drug Discovery, Inc., priority 1994, dated 2004).

In this series the target is bovine carbonic anhydrase (Bos taurus, UniProt P00921). The settings on record: relatively weak inhibitor, displaced by increased dansylamide concentration.
Sequence of bovine carbonic anhydrase (P00921 whole entry): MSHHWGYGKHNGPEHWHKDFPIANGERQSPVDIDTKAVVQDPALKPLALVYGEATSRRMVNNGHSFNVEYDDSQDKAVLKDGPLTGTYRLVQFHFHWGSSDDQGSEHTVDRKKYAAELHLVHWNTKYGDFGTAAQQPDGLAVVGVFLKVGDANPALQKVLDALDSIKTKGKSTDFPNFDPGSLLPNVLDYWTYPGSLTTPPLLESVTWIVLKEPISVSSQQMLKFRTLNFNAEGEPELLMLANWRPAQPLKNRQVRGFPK

Regarding `NS(=O)(=O)c1cc2c(cc1Cl)N=CNS2(=O)=O` [chlorothiazide], the Ki was approximately 75 nM.
